Results: patent US9572799B2, “Pyrazolopyridine derivatives for use in the treatment of bladder cancer” (SANOFI, priority 2013, dated 2017)

Experiments:
[1] = system: bladder cancer tumour cells of TCC97-7 type carrying the Ser249Cys mutation of FGF receptor 3; assay: Inhibition of serum-induced proliferation of TCC97-7 bladder cancer cells (cell-covered surface area, Incucyte); format: cell-based; conditions: 72 h, TCC97-7 cell line in the presence of serum, after 3 days
Protocol: Evaluation of the Capacity of the FGF-R Antagonists to Inhibit Serum-Induced Proliferation of Bladder Cancer Tumour Cells of TCC97-7 Type Carrying the Ser249Cys Mutation of FGF Receptor 3
To do this, 2000 cells are seeded in the morning in 50 μl of complete medium (Ham-F/12, 1% FCS, 2 mM glutamine, non-essential amino acids, sodium pyruvate, 1% insulin/transferrin/selenium, hydrocortisone). In the evening, 50 μl of the various compounds are added at 2 or 20 μM after dilution in complete culture medium in order to obtain final concentrations of 1 or 10 μM. After 3 days, cell proliferation is evaluated by measuring the cell-covered surface area of a well of a 96 well plate. This surface area is measured using an Incucyte apparatus (Essen BioScience). The percentage inhibition of the cell proliferation is calculated by considering the surface area occupied by the TCC97-7 cells cultured in the absence of FGF-R antagonists to be 0% inhibition. 100% inhibition would correspond to a well no longer containing cells.
Thus, compounds 1 to 24 are capable of inhibiting TCC97-7 cell proliferation by more than 20% at the dose of 1 or 10 μM. (Table No. 2).

[2] = system: TCC97-7 bladder cancer cells carrying the Ser249Cys mutation of FGF-R3; assay: Reduction of intracellular ATP content of TCC97-7 cells in serum-supplemented medium (Cell Titer-Glo); format: cell-based; conditions: 72 h, TCC97-7 cells cultured in the presence of serum, after 3 days, read-out: Inhibition of the amount of intracellular ATP (%)
Protocol: Evaluation of the Capacity of FGF-R Antagonists to Reduce the ATP Content of TCC97-7 Bladder Cancer Cells Carrying the Ser249Cys Mutation of FGF-R3, Cultured in a Serum-Supplemented Medium
To do this, 3000 cells are seeded in 50 μl of complete medium (Ham-F/12, 1% FCS, 2 mM glutamine, non-essential amino acids, sodium pyruvate, 1% insulin/transferrin/selenium, hydrocortisone). 16 hours later, 50 μl of the various compounds are added at 2 and 20 μM after dilution in complete culture medium in order to obtain final concentrations of 1 and 10 μM. After 3 days, the ATP content of the cells is measured using the Cell Titer-Glo® Luminescent Cell Viability Assay kit (Promega, France) according to the supplier's recommendations. The percentage inhibition of the amount of intracellular ATP is calculated by considering the ATP content of the cells cultured in the absence of antagonist to be 0% inhibition. 100% inhibition would correspond to a well in which the ATP content is zero.
Thus, compounds 1 to 24 are capable of inhibiting the amount of intracellular ATP in TCC97-7 cells by more than 20% at the dose of 1 or 10 μM (Table No. 3).

Row | Structure (SMILES) | melting point [°C] | inhibition at 1 µM [1] [%] | inhibition at 10 µM [1] [%] | inhibition at 1 µM [2] [%] | inhibition at 10 µM [2] [%]
1 | COc1cccc(-c2n[nH]c3nc(-c4ccc(N)c(C#N)c4)cc(C(F)F)c23)c1 [compound 12, 2-Amino-5-[4-difluoromethyl-3-(3-methoxyphenyl)-1H-pyrazolo[3,4-b]pyridin-6-yl]benzonitrile] | 233 | 12.1 | 95.8 | 23.8 | 75.8
2 | O=c1[nH]c2ccc(-c3cc(C(F)(F)F)c4c(-c5ccccc5)n[nH]c4n3)cc2[nH]1 [compound 15, 5-(3-Phenyl-4-trifluoromethyl-1H-pyrazolo[3,4-b]pyridin-6-yl)-1,3-dihydrobenzoimidazol-2-one] | 380 | -3 | 29 | -11 | 19
